Test results reported in publication PMC11188489, “Pharmacokinetic assessment of tacrolimus in combination with deoxyschizandrin in rats” (Frontiers in Pharmacology, 2024).

Experiments:
[1] = Pharmacokinetics of Tac in rats alone or co-administered with deoxyschizandrin or Wuzhi capsule (UHPLC-MS/MS of plasma); type: in vivo, SD rats; settings: for AUMC0→t / AUC(0-inf) / AUC(0-t) / Cmax / MRT / Tmax / half-life: rat plasma; for AUC(0-inf) / AUC(0-t) / Cmax / MRT / Tmax / half-life: male, SD, rat, plasma
Description: The mobile phase A was acetonitrile, and mobile phase B was 0.1% formic acid in water, and the initial mobile phase of gradient elution program was consisted of 60% phase A and 40% phase B. The sample injection volume was set at 10 μL. Gradient elution program was supplied in Supplementary Table S1.
The mass spectrometry detection was achieved on an Agilent 6460A mass spectrometer with ESI source. […] The settings of the mass spectrometer source were as follows: capillary voltage 4,000 V, sheath gas flow 12 L/min, temperature 400°C, dry gas (nitrogen) flow 10 L/min and temperature 350°C, nebulizer pressure 45 psi. All analytes were detected in positive ionization mode. Collision gas (high purity liquid nitrogen) was set at 0.25 MPa. The structures of both two analytes and IS are display in Figure 1.
The pretreatment was performed for the plasma sample by one-step protein precipitation, Briefly, 100 μL sample was transferred into a 1.5 mL EP tube prior to adding with 300 μL methanol(containing 200 ng/mL IS). The mixture was vortex-mixed for 30 s before centrifugation at 17,400 g for 10 min at room temperature, and 100 μL of the supernatant was diluted with 100 μL of acetonitrile (v/v, 1:1) Then, a 10 μL aliquoted of diluted solution was injected into the UHPLC-MS/MS system for analysis.
The protocol of the animal study was approved by the Experimental Animal Ethics Committee of the Shanghai University of Traditional Chinese Medicine. Specific Pathogen Free (SPF) grade SD rats, male, 8 weeks old, 200–250 g, were obtained from the animal experiment center of Shanghai University of Traditional Chinese Medicine. After passing quarantine, the rats were adaptive fed for 2 days. Rats were fasted for 12–14 h, followed by the initiation of pharmacokinetic study of Tac and deoxyschizandrin. This animal study was carried out in accordance with the National Institutes of Health Guide for the Care and Use of Laboratory animals.
In this study, 42 rats were divided equally into seven groups of six rats each, numbered NG2201-NG2207. Among them, the NG2201 and NG2202 group was dosed with 150 mg/kg deoxyschizandrin alone to study the PK of deoxyschizandrin in rats after single and multiple doses; the NG2203 group was administrate dosed with 1.0 mg/kg of Tac; the NG2204-NG2206 groups were dosed with 75, 150, and 300 mg/kg of deoxyschizandrin plus 1.0 mg/kg Tac, respectively, and the NG2207 group was dosed with the Wuzhi capsule (approximately equal to 150 mg/kg of deoxyschizandrin) plus 1.0 mg/kg of Tac ([Teng et al., 2022]). The detailed dosing regimen is shown in Table 2, and all dose in this experiment were calculated according to clinical dose. Blood samples (approximately 300 μL for each) for PK analysis were collected into lithium–heparin tubes. The plasma sampling schedules are outlined below: Blood samples were drawn pre-dose, at 5, 10, 20 and 30 min, and at 1, 1.5, 2, 4, 8 and 24 h after drug administration. The blood samples were centrifuged at 5,000 g for 15 min at 4°C to collect plasma samples, which were placed −80 refrigerator.
The rat plasma collected from each group was pretreated according to the method in section 2.5, and exposure levels of Tac and deoxyschizandrin were determined using the above established UHPLC-MS/MS method and the PKs were calculated using DAS software using non-compartment model (version 2.0, China Pharmacological Society). The data were presented as mean ± SD.

[2] = Stability of the two analytes in rat plasma under different storage conditions; type: in vitro ADME; settings: n=5
Description: To prepare the stock solution, approximately 2.00 mg of Tac, deoxyschizandrin and IS were accurately weighed and dissolved in methanol, respectively. The stock solutions of Tac and deoxyschizandrin with a final concentration of 1.00 mg/mL was obtained, and the IS stock solution was diluted to 100.00 ng/mL using methanol before use. The stock solutions were aliquoted and stored at −80°C. Combined working solutions were prepared by diluting the stock solution using 10% aqueous methanol at the following concentrations: 5.00, 10.00, 20.00, 50.00, 100.00, 200.00, 500.00, 1,000.00, and 2,000.00 ng/mL. Blank rat plasma was used to prepare the calibration standards. Quality-control (QC) samples of two analytes were prepared separately in the same manner at three concentrations, namely, 10 (low concentration), 100 (middle), 1,000 ng/mL (high), and all QC samples were stored at −80°C.
The methodology validation was completed according to FDA guidelines and Chinese Pharmacopoeia (2015 edition), and the linearity, inter- and intra-precision and accuracy, matrix effect and extraction recovery, stability and specificity of this method were validated according to previous study ([Lu et al., 2022]; [Wang et al., 2022]; [Shu et al., 2016]).

[3] = design: method as in Abushammala, 2021; settings: ref Abushammala, 2021; cited from earlier work
[4] = 1 mg/kg, NG2203: 1.0 mg/kg of Tac alone
[5] = 1 mg/kg, NG2204: 1.0 mg/kg of Tac plus 75 mg/kg deoxyschizandrin
[6] = 1 mg/kg, NG2205: 1.0 mg/kg of Tac plus 150 mg/kg deoxyschizandrin
[7] = 1 mg/kg, NG2206: 1.0 mg/kg of Tac plus 300 mg/kg deoxyschizandrin
[8] = 1 mg/kg, NG2207: 1.0 mg/kg of Tac plus Wuzhi capsule (equivalent to 150 mg/kg deoxyschizandrin)
[9] = 1 mg/kg, Tac 1 mg/kg alone (NG2203)
[10] = 1.0 mg/kg of Tac plus Wuzhi capsule (equivalent to 150 mg/kg deoxyschizandrin)

In the case of `C=CC[C@@H]1/C=C(\C)C[C@H](C)C[C@H](OC)[C@H]2O[C@@](O)(C(=O)C(=O)N3CCCC[C@H]3C(=O)O[C@H](/C(C)=C/[C@@H]3CC[C@@H](O)[C@H](OC)C3)[C@H](C)[C@@H](O)CC1=O)[C@H](C)C[C@@H]2OC` [Tac, Tacrolimus], the “increase of C max of Tac after co-administered deoxyschizandrin” value ([1]; 75, 150, 300 mg/kg deoxyschizandrin plus 1 mg/kg Tac vs Tac alone, rats) is reported as 3-4 fold, the AUMC0→t ([1]; NG2203: 1.0 mg/kg of Tac alone) is reported as 613.05 ± 182.15 ng. h2/mL and the AUMC0→t ([1]; NG2204: 1.0 mg/kg of Tac plus 75 mg/kg deoxyschizandrin) is reported as 2107.22 ± 701.25 ng. h2/mL. The AUMC0→t ([1]; NG2205: 1.0 mg/kg of Tac plus 150 mg/kg deoxyschizandrin) was 1915.12 ± 621.91 ng. h2/mL, the AUMC0→t ([1]; NG2206: 1.0 mg/kg of Tac plus 300 mg/kg deoxyschizandrin) was 3,315.05 ± 1,100.65 ng. h2/mL and the AUMC0→t ([1]; NG2207: 1.0 mg/kg of Tac plus Wuzhi capsule (equivalent to 150 mg/kg deoxyschizandrin)) was 2395.69 ± 1,225.18 ng. h2/mL. For the same compound, the “mean C max lower with Wuzhi capsule compared with deoxyschizandrin” value ([1]; Tac 1.0 mg/kg plus Wuzhi capsule vs plus 150 mg/kg deoxyschizandrin, rats) was 11.23 ng/mL, the AUC(0-inf) [1, 4] was 105 ± 31.3 ng·h/mL and the AUC(0-t) [1, 4] was 95.1 ± 32.6 ng·h/mL. The Cmax [1, 4] was 14.3 ± 4.73 ng/mL, the MRT [1, 4] was 6.54 ± 0.55 h and the Tmax [1, 4] was 1.33 ± 0.52 h. The half-life [1, 4] was 7.3 ± 3.06 h, the AUC(0-inf) [1, 5] was 351 ± 117 ng·h/mL and the AUC(0-t) [1, 5] was 314 ± 99.4 ng·h/mL. For the same compound, the Cmax [1, 5] was 43.2 ± 13.7 ng/mL, the MRT [1, 5] was 6.69 ± 0.25 h and the Tmax [1, 5] was 1.17 ± 0.41 h. It also gave a half-life [1, 5] of 7.31 ± 1.04 h, an AUC(0-inf) [1, 6] of 331 ± 98 ng·h/mL and an AUC(0-t) [1, 6] of 315 ± 92.2 ng·h/mL. For the same compound, the Cmax [1, 6] was 54.5 ± 14.4 ng/mL, the MRT [1, 6] was 6.02 ± 0.53 h and the Tmax [1, 6] was 1.08 ± 0.49 h. The half-life [1, 6] was 5.04 ± 1.95 h, the AUC(0-inf) [1, 7] was 534 ± 176 ng·h/mL and the AUC(0-t) [1, 7] was 486 ± 149 ng·h/mL. It also gave a Cmax [1, 7] of 67.4 ± 18.6 ng/mL, an MRT [1, 7] of 6.76 ± 0.31 h and a Tmax [1, 7] of 0.75 ± 0.27 h. For the same compound, the half-life [1, 7] was 6.59 ± 1.62 h, the AUC(0-inf) [1, 8] was 388 ± 217 ng·h/mL and the AUC(0-t) [1, 8] was 340 ± 193 ng·h/mL. The Cmax [1, 8] was 43.2 ± 21.9 ng/mL, the MRT [1, 8] was 7.23 ± 1.04 h and the Tmax [1, 8] was 1.5 ± 0.55 h. For the same compound, the half-life [1, 8] was 8.27 ± 2.2 h, the AUC(0-inf) [1, 9] was 105 ± 31.3 ng·h/mL and the AUC(0-t) [1, 9] was 95.1 ± 32.6 ng·h/mL. The AUC(0-t) ([1]; 1 mg/kg, Tac alone (NG2203)) was 95.1 ± 32.6 ng·h/mL, the AUC(0-inf) [1, 10] was 388 ± 217 ng·h/mL and the AUC(0-t) [1, 10] was 340 ± 193 ng·h/mL. The AUC(0-t) ([1]; Tac after co-administration of deoxyschizandrin (NG2205)) was 315 ± 92.2 ng·h/mL, the AUC(0-t) ([1]; Tac co-administrated with deoxyschizandrin (NG2205)) was 315 ± 92.2 ng·h/mL and the “Auto-sampler stability (24h, 4℃) Mean ± SD” value ([2]; Nominal Conc. 10 ng/mL) was 10.23±0.51. For the same compound, the “Bench-top stability (8h, RT) Mean ± SD” value ([2]; Nominal Conc. 10 ng/mL) was 10.39±0.41, the “Frozen-thaw stability (3 times) Mean ± SD” value ([2]; Nominal Conc. 10 ng/mL) was 10.55±0.54 and the “Long-term stability (1 month, -80℃) Mean ± SD” value ([2]; Nominal Conc. 10 ng/mL) was 10.35±0.14. For the same compound, the “Auto-sampler stability (24h, 4℃) Mean ± SD” value ([2]; Nominal Conc. 100 ng/mL) was 103.90±2.74, the “Bench-top stability (8h, RT) Mean ± SD” value ([2]; Nominal Conc. 100 ng/mL) was 102.33±1.53 and the “Frozen-thaw stability (3 times) Mean ± SD” value ([2]; Nominal Conc. 100 ng/mL) was 110.23±5.21. For the same compound, the “Long-term stability (1 month, -80℃) Mean ± SD” value ([2]; Nominal Conc. 100 ng/mL) was 101.09±1.01, the “Auto-sampler stability (24h, 4℃) Mean ± SD” value ([2]; Nominal Conc. 1000 ng/mL) was 1010.05±13.85 and the “Bench-top stability (8h, RT) Mean ± SD” value ([2]; Nominal Conc. 1000 ng/mL) was 1009.93±11.80. The “Frozen-thaw stability (3 times) Mean ± SD” value ([2]; Nominal Conc. 1000 ng/mL) was 1025.45±12.50, the “Long-term stability (1 month, -80℃) Mean ± SD” value ([2]; Nominal Conc. 1000 ng/mL) was 1008.72±11.30 and the average bioavailability [3] was 25%.
